Test results as given in US11919965B2, “Methods of treating multiple myeloma with bispecific anti-BCMA x anti-CD3 antibodies” (Regeneron Pharmaceuticals, Inc., priority 2019, dated 2024).

Experiments:
[1] = system: surface BCMA on MM1S cells; test: FACS surface BCMA after overnight incubation with anti-BCMA antibodies or DAPT; assay type: cell-based, human; details: stained with the anti-BCMA antibody
Procedure: (§1) Flow cytometric analysis was utilized to determine the impact of overnight incubation of multiple myeloma cell lines with anti-BCMA antibodies on the level of surface BCMA. […] After 18 hours, wells were washed with cold FACS wash (PBS+1% filtered FBS) and resuspended in 667 nM of the same anti-BCMA antibody in cold stain buffer (Miltenyi 130-091-221) for 30 minutes on ice. After incubation, the cells were washed twice with cold FACS wash (PBS+1% filtered FBS) and bound antibody was detected by incubating with the appropriate anti-human secondary antibody (anti-hlgG or anti-HIS) on ice for an additional 30-45 minutes. After incubation, cells were washed, re-suspended in 200 μL cold PBS containing 1% filtered FBS and analyzed by flow cytometry on a BD FACS Canto II. Fold increase in staining was calculated by dividing the MFI of stained cells previously incubated overnight in BCMA abs or DAPT by the MFI of stained cells that were incubated overnight in media only.

[2] = system: surface BCMA on Molp8 cells; test: as above; assay type: cell-based, human
Procedure: as §1

[3] = system: surface BCMA on NCI-H929 cells; test: as above; assay type: cell-based, human
Procedure: as §1

[4] = system: surface BCMA on U266 cells; test: as above; assay type: cell-based, human
Procedure: as §1

[5] = system: MC38/BCMA tumors; test: Syngenic MC38/BCMA tumor model in CD3-humanized mice, combination with anti-PD-1 (Example 20); assay type: in vivo, mouse; details: for Average Tumor Size (mm3) ± SEM on Day 3 / Average Tumor Size (mm3) ± SEM on Day 7 / Average Tumor Size (mm3) ± SEM on Day 11 / Average Tumor Size (mm3) ± SEM on Day 14 / Average Tumor Size (mm3) ± SEM on Day 18 / Average Tumor Size (mm3) ± SEM on Day 21 / Average Tumor Size (mm3) ± SEM on Day 24 / Average Tumor Size (mm3) ± SEM on Day 28: doses on days 3, 7, 11
Procedure: (§2) Implantation and measurement of syngenic tumors: C57BL/6 mice that express human CD3deg in place of murine CD3deg (CD3-humanized mice) were subcutaneously implanted with 1×10^6 MC38 colon carcinoma cells that have been engineered to express full-length human BCMA (MC38/BCMA).
(§3) The mice were administered these Abs twice more on days 7 and 11 for a total of three doses, and tumor growth was assessed throughout the experiment.
(§4) Calculation of syngenic tumor growth and inhibition: In order to determine tumor volume by external caliper, the greatest longitudinal diameter (length in mm) and the greatest transverse diameter (width in mm) were determined. Tumor volumes based on caliper measurements were calculated by the formula: Volume (mm^3)=(length× width^2)/2.

[6] = system: MC38/BCMA tumors; test: Syngenic MC38/BCMA tumor model in CD3-humanized mice, combination with anti-PD-1, second experiment (Example 21); assay type: in vivo, mouse
Procedure: as §2, §3, §4

[7] = biological target: T1, human BCMA-MFC (Homo sapiens, UniProt Q02223); test: SPR (Biacore 4000) binding kinetics at 25° C.
T1 construct: extracellular domain of human BCMA expressed with C-terminal mFc tag (human BCMA-MFC)
Procedure: (§5) The CM5 Biacore sensor surface was derivatized by amine coupling with a monoclonal mouse anti-human Fc antibody (GE, #BR-1008-39) to capture purified anti-BCMA mAbs and anti-BCMA×anti-CD3 bispecific mAbs. All Biacore binding studies were performed in a buffer composed of 0.01M HEPES pH 7.4, 0.15M NaCl, 3 mM EDTA, 0.05% v/v Surfactant P20 (HBS-ET running buffer). […] Antigen samples were then injected over the anti-BCMA and anti-BCMA×anti-CD3 bispecific mAbs captured surfaces at a flow rate of 30 μL/minute. Antibody-reagent association was monitored for 5 minutes while dissociation in HBS-ET running buffer was monitored for 10 minutes. All of the binding kinetics experiments were performed at 25° C. Kinetic association (ka) and dissociation (kd) rate constants were determined by fitting the real-time sensorgrams to a 1:1 binding model using Scrubber 2.0c curve fitting software. Binding dissociation equilibrium constants (KD) and dissociative half-lives (t1/2) were calculated from the kinetic rate constants as: […]

[8] = biological target: T2, human BCMA-MMH (Homo sapiens, UniProt Q02223); test: SPR (Biacore 4000) binding kinetics at 25° C.
T2 construct: extracellular domain of human BCMA expressed with C-terminal myc-myc-hexahistidine tag (human BCMA-MMH)
Procedure: as §5

[9] = system: monkey BCMA-MFC; test: SPR (Biacore 4000) binding kinetics at 25° C.
Procedure: as §5

[10] = biological target: monkey BCMA-MMH; test: SPR (Biacore 4000) binding kinetics at 25° C.; details: for 90 nM mfBCMA.mmh Bind (RU): antibody captured on anti-human Fc
Procedure: as §5

[11] = biological target: T3, mouse BCMA-MFC (Mus musculus, UniProt O88472); test: SPR (Biacore 4000) binding kinetics at 25° C.
T3 construct: 30 nM BCMA expressed with C-terminal mFc tag (mouse BCMA-MFC)
Procedure: as §5

[12] = bispecific 0.04 mg/kg + second antibody 4 mg/kg
[13] = bispecific 0.24 mg/kg + second antibody 4 mg/kg
[14] = bispecific 0.04 mg/kg + partner antibody 4 mg/kg
[15] = bispecific 0.4 mg/kg + second antibody 4 mg/kg

T3 sequence (O88472 with tags, fused parts or gaps): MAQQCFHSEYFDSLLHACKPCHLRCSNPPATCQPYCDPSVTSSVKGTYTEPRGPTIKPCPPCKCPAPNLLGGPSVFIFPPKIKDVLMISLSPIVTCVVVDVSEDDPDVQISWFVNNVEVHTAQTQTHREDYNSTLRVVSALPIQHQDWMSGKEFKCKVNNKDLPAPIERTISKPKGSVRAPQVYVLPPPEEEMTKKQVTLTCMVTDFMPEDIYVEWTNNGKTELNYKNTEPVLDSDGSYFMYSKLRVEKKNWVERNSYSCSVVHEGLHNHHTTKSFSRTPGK
T2 sequence (Q02223 with tags, fused parts or gaps): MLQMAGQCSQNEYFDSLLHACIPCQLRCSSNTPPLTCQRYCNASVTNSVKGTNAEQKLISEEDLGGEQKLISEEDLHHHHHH
T1 sequence (Q02223 with tags, fused parts or gaps): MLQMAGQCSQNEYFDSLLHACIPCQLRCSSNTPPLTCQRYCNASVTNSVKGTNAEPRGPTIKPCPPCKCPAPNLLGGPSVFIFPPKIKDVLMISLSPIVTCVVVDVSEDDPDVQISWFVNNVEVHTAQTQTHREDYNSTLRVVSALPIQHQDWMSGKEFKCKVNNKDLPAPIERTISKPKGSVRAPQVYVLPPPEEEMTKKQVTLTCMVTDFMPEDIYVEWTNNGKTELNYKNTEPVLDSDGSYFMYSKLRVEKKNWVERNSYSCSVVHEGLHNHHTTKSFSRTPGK
monkey BCMA-MMH, sequence (as listed by the source): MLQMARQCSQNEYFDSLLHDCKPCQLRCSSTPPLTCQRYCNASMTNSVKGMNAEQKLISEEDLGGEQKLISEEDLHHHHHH
monkey BCMA-MFC, sequence (as listed by the source): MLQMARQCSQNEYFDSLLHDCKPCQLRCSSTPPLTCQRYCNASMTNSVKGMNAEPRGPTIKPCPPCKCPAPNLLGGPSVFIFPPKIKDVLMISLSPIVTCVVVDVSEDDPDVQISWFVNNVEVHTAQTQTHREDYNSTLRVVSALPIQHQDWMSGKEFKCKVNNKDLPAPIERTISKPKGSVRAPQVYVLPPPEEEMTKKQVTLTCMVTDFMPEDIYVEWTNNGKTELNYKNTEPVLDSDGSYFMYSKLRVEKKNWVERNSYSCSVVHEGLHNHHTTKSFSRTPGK

C[C@H](NC(=O)Cc1cc(F)cc(F)c1)C(=O)N[C@H](C(=O)OC(C)(C)C)c1ccccc1 [DAPT]
MFI fold change over cells incubated in media only, Average [1]: 11.9 fold | fold increase of BCMA levels after overnight DAPT, range over detecting antibodies [2]: 2.4-8.6 fold | fold increase of BCMA levels after overnight DAPT, range over detecting antibodies [3]: 2.3-4 fold | fold increase of BCMA levels after overnight DAPT, range over detecting antibodies [4]: 5.3-9.0 fold

REGN5458 + Isotype: combination of REGN5458 with isotype control Ab (Clone 2A3)
Average Tumor Size (mm3) ± SEM on Day 3 [5, 12]: 15.62 ± 1.61 mm3 | Average Tumor Size (mm3) ± SEM on Day 3 [5, 13]: 13.13 ± 3.12 mm3 | Average Tumor Size (mm3) ± SEM on Day 7 [5, 12]: 37.98 ± 3.93 mm3 | Average Tumor Size (mm3) ± SEM on Day 7 [5, 13]: 29.27 ± 5.00 mm3 | Average Tumor Size (mm3) ± SEM on Day 11 [5, 12]: 112.53 ± 17.39 mm3 | Average Tumor Size (mm3) ± SEM on Day 11 [5, 13]: 36.63 ± 14.89 mm3 | Average Tumor Size (mm3) ± SEM on Day 14 [5, 12]: 438.16 ± 59.56 mm3 | Average Tumor Size (mm3) ± SEM on Day 14 [5, 13]: 224.33 ± 47.04 mm3 | Average Tumor Size (mm3) ± SEM on Day 18 [5, 12]: 1040.12 ± 61.95 mm3 | Average Tumor Size (mm3) ± SEM on Day 18 [5, 13]: 515.15 ± 115.38 mm3 | Average Tumor Size (mm3) ± SEM on Day 21 [5, 12]: 2133.12 ± 129.26 mm3 | Average Tumor Size (mm3) ± SEM on Day 21 [5, 13]: 1225.47 ± 289.39 mm3 | Average Tumor Size (mm3) ± SEM on Day 24 [5, 12]: 3648.37 ± 536.71 mm3 | Average Tumor Size (mm3) ± SEM on Day 24 [5, 13]: 1493.26 ± 973.01 mm3 | Average Tumor Size (mm3) ± SEM on Day 28 [5, 12]: All Animals Euthanized | Average Tumor Size (mm3) ± SEM on Day 28 [5, 13]: 1371.17 ± 0.00 mm3 | Number of Mice Tumor-Free at End of Experiment (Day 28) [5, 14]: 0 of 7 | Number of Mice Tumor-Free at End of Experiment (Day 28) ([5]; bispecific 0.24 mg/kg + partner antibody 4 mg/kg): 0 of 6 | Average Tumor Size (mm3) ± SEM on Day 3 [6, 12]: 12.41 ± 2.56 mm3 | Average Tumor Size (mm3) ± SEM on Day 3 [6, 15]: 11.22 ± 0.68 mm3 | Average Tumor Size (mm3) ± SEM on Day 6 [6, 12]: 38.79 ± 3.52 mm3 | Average Tumor Size (mm3) ± SEM on Day 6 [6, 15]: 16.11 ± 1.27 mm3 | Average Tumor Size (mm3) ± SEM on Day 10 [6, 12]: 116.32 ± 19.99 mm3 | Average Tumor Size (mm3) ± SEM on Day 10 [6, 15]: 24.27 ± 6.74 mm3 | Average Tumor Size (mm3) ± SEM on Day 13 [6, 12]: 319.91 ± 53.05 mm3 | Average Tumor Size (mm3) ± SEM on Day 13 [6, 15]: 50.93 ± 20.00 mm3 | Average Tumor Size (mm3) ± SEM on Day 18 [6, 12]: 1314.27 ± 211.22 mm3 | Average Tumor Size (mm3) ± SEM on Day 18 [6, 15]: 248.51 ± 107.21 mm3 | Average Tumor Size (mm3) ± SEM on Day 21 [6, 12]: 2446.35 ± 395.48 mm3 | Average Tumor Size (mm3) ± SEM on Day 21 [6, 15]: 453.43 ± 174.75 mm3 | Average Tumor Size (mm3) ± SEM on Day 25 [6, 12]: 2411.64 ± 451.96 mm3 | Average Tumor Size (mm3) ± SEM on Day 25 [6, 15]: 661.70 ± 331.60 mm3 | Number of Mice Tumor-Free at End of Experiment (Day 25) [6, 14]: 0 of 10 | Number of Mice Tumor-Free at End of Experiment (Day 25) ([6]; bispecific 0.4 mg/kg + partner antibody 4 mg/kg): 2 of 10

B1: REGN4515: anti-BCMA antibody, HCVR/LCVR SEQ ID NOs 50/58 (antibody, V domains shown)
VH: QVQLVESGGGLVKPGGSLRLSCAASGFTFSDYYISWIRQAPGKGLEWVSYISSSGSSIKYADSVKGRFTISRDNAKNSLYLQMNSLRAEDTAVYYCAREGGNYGMDVWGQGTTVTVSS
VL: DIQMTQSPSSVSASVGDRVTITCRASQGINNWLVWYQQKPGKAPKLLIYAATSLQSGVPSRFSGSGSGTDFTLTISSLQPEDFATYYCQQANSFPPTFGQGTKLEIK
ka [7]: 1.41e+06 M⁻¹ s⁻¹ | kd [7]: 8.95e-05 s⁻¹ | ka [8]: 869000 M⁻¹ s⁻¹ | kd [8]: 0.00247 s⁻¹ | ka [9]: 2.13e+06 M⁻¹ s⁻¹ | kd [9]: 0.00716 s⁻¹ | Kd [10]: > 0.09 µM | 90 nM mfBCMA.mmh Bind (RU) [10]: 1.9 RU | ka [11]: 947000 M⁻¹ s⁻¹ | kd [11]: 0.00418 s⁻¹

B2: REGN4514: anti-BCMA antibody, HCVR/LCVR SEQ ID NOs 34/42 (antibody, V domains shown)
VH: EVQLVESGGGLVQPGRSLRLSCAASGFTFDDYAMHWVRQAPGKGLEWVSGISWNSGNMGYADSVKGRFTISRDNAKNSLFLQMHSLRAEDTAFYYCAKVRLTAFDFWGQGTLVTVSS
VL: DIQMTQSPSSLSASVGDRVTITCRTSQSIGNYLNWFQQKPGKAPKLLIYTASSLQNGVPSRFTGSGSGTDFTLTISSLQPEDFVIYYCQQSFSTPYTFGQGTKLEIK
ka [7]: 1.07e+06 M⁻¹ s⁻¹ | kd [7]: 4.53e-05 s⁻¹ | ka [8]: 1.06e+06 M⁻¹ s⁻¹ | kd [8]: 0.00285 s⁻¹ | ka [9]: 492000 M⁻¹ s⁻¹ | kd [9]: 0.00724 s⁻¹ | Kd [10]: > 0.09 µM | 90 nM mfBCMA.mmh Bind (RU) [10]: 1.1 RU | ka [11]: 397000 M⁻¹ s⁻¹ | kd [11]: 0.000269 s⁻¹

B3: mAb16711: anti-BCMA antibody, HCVR/LCVR SEQ ID NOs 2/10 (antibody, V domains shown)
VH: QVQLVESGGGVVQPGRSLRLSCAASGFTFSTYGIHWVRQAPGKGLEWVAVILHDGSSNYYAESVKGRFIISRDNSKNTLYLQMNSLRAEDTALYYCTKRYSEAAGPNWFDPWGQGTLVTVSS
VL: DIQMTQSPSSVSASVGDRVTITCRASRGISSWLAWYQQKPGKAPKLLIHAASSLQSGVPSRFSGSGSGTDFTLTISSLQPEDFATYYCQQAISFPFTFGPGTKVDIK
ka [7]: 1.85e+06 M⁻¹ s⁻¹ | kd [7]: 0.00019 s⁻¹ | ka [8]: 2.01e+06 M⁻¹ s⁻¹ | kd [8]: 0.00347 s⁻¹ | Kd [9]: > 0.03 µM | ka [11]: 1.07e+06 M⁻¹ s⁻¹ | kd [11]: 0.0011 s⁻¹
